Article PMC10584882 (Communications Biology, 2023)
Several values for one entry are separate records, joined by “and”; a condition that tells them apart may be missing. Equal entries are not always repeated. Entries after “also recorded” stand apart in the source; their conditions may differ.

Key:
CatL = molecular target: T1, CatL (Homo sapiens, UniProt P07711); assay: Reversibility of covalent cathepsin inhibition (CatL, 60 min incubation); format: biochemical; settings: 1 nM CatL, 1–80 nM inhibitor, 37 °C
T1 construct: made in house
Description: We observed no increase in relative inhibition over time, thus concluding that the covalent bond between cathepsins and inhibitors is reversible.

SARS-CoV-2 M^pro = molecular target: T2, SARS-CoV-2 M^pro (Severe acute respiratory syndrome coronavirus 2, UniProt P0DTD1); format: biochemical; settings: mean with 95% confidence interval; 100 nM M^pro, pH 7.3, 37 °C
T2 construct: Initially reported to target the viral main protease (M^pro); made in house
Experimental: In the enzyme inhibition assays, the initial velocities were calculated from the initial linear portions of their curves, assuming steady-state kinetics. IC50 and Ki values were calculated using GraphPad Prism software. Z-FR-AMC (CatK and CatV), Z-RR-AMC (CatB and CatL), and QS1 or Acetyl-VKLQ-AMC (M^pro) substrates were used to monitor reactions. These measurements were done in four independent duplicates or triplicates, respectively.

LC-HK2 cells = assay: Fluorescence microscopy, S-protein vesicle size in infected LC-HK2 cells; format: cell-based, human; settings: 1.5 µM, versus control
Experimental: LC-HK2 was cultivated on coverslips (13 mm diameter) to approximately 80% confluence. The cells were pre-treated for 2 h with 1.5 µM of S-Calpeptin diluted in DMEM supplemented with 2.5% FBS. The compounds were removed, and SARS-CoV-2 strain diluted in DMEM supplemented with 2.5% FBS was added to LC-HK2 cells at M.O.I of 0.05, allowing absorption for 1 h. The viral inoculum was removed, and cells were gently washed with PBS without calcium and magnesium. The cells were incubated in the continued presence of 1.5 µM of S-Calpeptin diluted in DMEM supplemented with 2.5% FBS and were examined by fluorescence microscopy at the time points 32, 40, 48, 56, 64 and 72 h post-infection.
For this purpose, the cells were fixed and permeabilized with 3.7% formaldehyde solution (Sigma-Aldrich, F1635) containing 0.2% Triton X-100 in PBS 1×. […] The images were captured using fluorescence range intensity adjusted identically within each experimental series.
Vesicles size quantifications were obtained from 2D maximum projections of Z stacks exported as grayscale TIFs (16-bit depth) using Automated Image Analysis in Zen 2.6 blue software (ZEISS). […]
In the Fluorescence microscopy evaluation, the P-values were generated by unpaired t-test using GraphPad Prism version 8.00 (La Jolla, CA, USA, www.graphpad.com). […]

[1] = S-Calpeptin toxicity experiment in Golden Syrian hamsters (weight, blood cell count, histopathology); format: in vivo, Golden Syrian hamsters (Mesocricetus auratus); set-up: leukocytes / neutrophils / lymphocytes / monocytes: unit not given here
[2] = blood cell count, 1 mg/kg S-Calpeptin, individual animals 1-3, 1 mg/kg

T1 sequence (P07711 114-333): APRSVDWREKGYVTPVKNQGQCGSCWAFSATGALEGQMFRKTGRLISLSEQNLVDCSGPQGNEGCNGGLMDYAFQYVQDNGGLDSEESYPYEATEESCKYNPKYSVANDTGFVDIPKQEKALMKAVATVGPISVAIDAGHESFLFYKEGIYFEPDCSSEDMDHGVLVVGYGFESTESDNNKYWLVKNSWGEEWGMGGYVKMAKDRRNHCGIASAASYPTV

**Q.** Which “reversibility of covalent bond to cathepsin” value (CatL) does the source give for CCCC[C@H](NC(=O)[C@H](CC(C)C)NC(=O)OCc1ccccc1)C(O)S(=O)(=O)[O-].[Na+] (some centres unmarked) [S-Calpeptin] here?
**A.** reversible

**Q.** And the Ki (SARS-CoV-2 M^pro)?
**A.** 4.7 µM

**Q.** What about the “impact on vesicle morphology / S-protein vesicle size” value (LC-HK2 cells) of the same compound?
**A.** did not reveal significant differences; also recorded: no substantial impact on vesicle morphology

**Q.** And the “body weight, summarized data, average” value ([1]; 1 mg/kg S-Calpeptin, day 0, relative to day 0)?
**A.** 100%

**Q.** And the “body weight, summarized data, average” value ([1]; 1 mg/kg S-Calpeptin, day 1, relative to day 0)?
**A.** 100.862%

**Q.** What about the “body weight, individual data” value ([1]; 1 mg/kg S-Calpeptin, day 2, individual animals A1-A3) of the same compound?
**A.** 124 g

**Q.** And the “body weight, summarized data, average” value ([1]; 1 mg/kg S-Calpeptin, day 2, relative to day 0)?
**A.** 100.893%

**Q.** What about the “body weight, summarized data, average” value ([1]; 1 mg/kg S-Calpeptin, day 3, relative to day 0) of the same compound?
**A.** 100.862%

**Q.** What about the “body weight, summarized data, average” value ([1]; 1 mg/kg S-Calpeptin, day 4, relative to day 0) of the same compound?
**A.** 101.724%

**Q.** What about the “body weight, summarized data, average” value ([1]; 1 mg/kg S-Calpeptin, day 5, relative to day 0) of the same compound?
**A.** 102.852%

**Q.** And the “body weight, summarized data, average” value ([1]; 1 mg/kg S-Calpeptin, day 6, relative to day 0)?
**A.** 102.288%

**Q.** What about the “body weight, summarized data, average” value ([1]; 2 mg/kg S-Calpeptin, day 0, relative to day 0) of the same compound?
**A.** 100%

**Q.** And the “body weight, summarized data, average” value ([1]; 2 mg/kg S-Calpeptin, day 1, relative to day 0)?
**A.** 100.285%

**Q.** What about the “body weight, summarized data, average” value ([1]; 2 mg/kg S-Calpeptin, day 2, relative to day 0) of the same compound?
**A.** 100.287%

**Q.** What about the “body weight, individual data” value ([1]; 2 mg/kg S-Calpeptin, day 3, individual animals A7-A9) of the same compound?
**A.** 120 g

**Q.** And the “body weight, summarized data, average” value ([1]; 2 mg/kg S-Calpeptin, day 3, relative to day 0)?
**A.** 101.388%

**Q.** And the “body weight, summarized data, average” value ([1]; 2 mg/kg S-Calpeptin, day 4, relative to day 0)?
**A.** 100.836%

**Q.** And the “body weight, summarized data, average” value ([1]; 2 mg/kg S-Calpeptin, day 5, relative to day 0)?
**A.** 101.368%

**Q.** What about the “body weight, individual data” value ([1]; 2 mg/kg S-Calpeptin, day 6, individual animals A7-A9) of the same compound?
**A.** 120 g

**Q.** And the “body weight, summarized data, average” value ([1]; 2 mg/kg S-Calpeptin, day 6, relative to day 0)?
**A.** 101.919%

**Q.** What about the “body weight, individual data” value ([1]; 3 mg/kg S-Calpeptin, day 0, individual animals A10-A12) of the same compound?
**A.** 124 g and 135 g

**Q.** What about the “body weight, summarized data, average” value ([1]; 3 mg/kg S-Calpeptin, day 0, relative to day 0) of the same compound?
**A.** 100%

**Q.** What about the “body weight, individual data” value ([1]; 3 mg/kg S-Calpeptin, day 1, individual animals A10-A12) of the same compound?
**A.** 124 g and 135 g

**Q.** What about the “body weight, summarized data, average” value ([1]; 3 mg/kg S-Calpeptin, day 1, relative to day 0) of the same compound?
**A.** 100.275%

**Q.** What about the “body weight, individual data” value ([1]; 3 mg/kg S-Calpeptin, day 2, individual animals A10-A12) of the same compound?
**A.** 124 g and 135 g

**Q.** And the “body weight, summarized data, average” value ([1]; 3 mg/kg S-Calpeptin, day 2, relative to day 0)?
**A.** 100.275%

**Q.** And the “body weight, summarized data, average” value ([1]; 3 mg/kg S-Calpeptin, day 3, relative to day 0)?
**A.** 101.582%

**Q.** And the “body weight, summarized data, average” value ([1]; 3 mg/kg S-Calpeptin, day 4, relative to day 0)?
**A.** 102.133%

**Q.** What about the “body weight, summarized data, average” value ([1]; 3 mg/kg S-Calpeptin, day 5, relative to day 0) of the same compound?
**A.** 102.402%

**Q.** What about the “body weight, summarized data, average” value ([1]; 3 mg/kg S-Calpeptin, day 6, relative to day 0) of the same compound?
**A.** 102.671%

**Q.** And the leukocytes [1, 2]?
**A.** 4150 and 4010 and 4200

**Q.** What about the lymphocytes [1, 2] of the same compound?
**A.** 2407 and 2366 and 2310

**Q.** What about the monocytes [1, 2] of the same compound?
**A.** 581 and 521 and 798

**Q.** What about the neutrophils [1, 2] of the same compound?
**A.** 1079 and 1083 and 924

**Q.** What about the leukocytes ([1]; blood cell count, 2 mg/kg S-Calpeptin, individual animals 7-9, 2 mg/kg) of the same compound?
**A.** 1780 and 2200 and 1620
